Experiments:
[1] = biological target: T1, Recombinant human cathepsin S (Homo sapiens, UniProt P25774); experiment: Recombinant cathepsin inhibition, gel-based competition with GB123 probe; format: biochemical; conditions: Figure 2, read-out: IC50 [μM] CTSS
T1 construct: made in house
Protocol: In-gel fluorescence analysis was used to detect the residual activity of the cathepsins by applying pan-cathepsin probe GB123 to detect the stable enzyme–probe complex. This approach is used for testing inhibition and selectivity.[37],[41]
Recombinant human cathepsin L (0.5 μM), cathepsin B (0.5 μM), cathepsin K (0.5 μM), and cathepsin S (0.5 μM) were pretreated with different concentrations of inhibitors (GD compounds, odanacatib) for 1 h in reaction buffer (50 mM acetate, 2 mM dithiothreitol (DTT), and 5 mM MgCl2, pH 5.5) at 37 °C. GB123 (1 μM) was added and incubated with samples for 60 min at 37 °C.[37],[41] The reaction was stopped by the addition of sample buffer 4× (40% glycerol, 0.2 M Tris/HCl pH 6.8, 20% β-mercaptoethanol, 12% SDS, and 0.4 mg/mL bromophenol blue). Samples were then boiled, separated on a 12.5% SDS gel, and scanned for fluorescence by a Typhoon scanner FLA 9500 at excitation and emission wavelengths of 635 and 670 nm for GB123.

CTSL = biological target: T2, CTSL (Homo sapiens, UniProt P07711); experiment: Kinetic evaluation of recombinant cathepsin inhibition, fluorogenic substrate Z-RR-AMC; format: biochemical
T2 construct: made in house
T2 sequence (P07711 114-333): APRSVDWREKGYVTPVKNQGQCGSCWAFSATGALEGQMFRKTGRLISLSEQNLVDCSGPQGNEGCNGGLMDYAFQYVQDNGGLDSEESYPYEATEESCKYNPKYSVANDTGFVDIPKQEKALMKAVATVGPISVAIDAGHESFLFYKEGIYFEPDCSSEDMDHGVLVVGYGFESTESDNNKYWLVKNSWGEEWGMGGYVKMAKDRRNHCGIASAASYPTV
Protocol: Cathepsin (0.4 nM, CatK) or 5 nM (CatS, CatB, and CatL) were each mixed with inhibitors before adding the fluorogenic substrate. The proteases were then reacted with their substrates, Z-RR-AMC (CatL) or Z-FR-AMC (CatS, CatB, and CatK), for 30 min at 37 °C in the phosphate buffer (100 mM Na2HPO4/NaH2PO4, 50 mM NaCl, 5 mM DTT, 0.1% PEG-6000, at pH 6). Reactions were done in 96-well black flat-bottom microplates (Greiner, Germany); fluorescence (Ex/Em 370 and 460 nm) was measured by a Tecan INFINITE M1000 pro plate reader (Tecan, Switzerland) in the presence of inhibitors or vehicle. For irreversible inhibitors, reaction data were analyzed by using the one-phase association formula in GraphPad Prism 9 software: Y = Y0 + (plateau – Y0) × (1 – exp(−K × X)), where Y0 and Y denote the fluorescence signals at times 0 and t, respectively, K represents the observed reaction rate kobs, and X signifies the […]. The inactivation rates at each inhibitor concentration were determined by subtracting the inactivation observed in the control sample: kobs – kctrl. The maximum inactivation rate (kinact) was derived as the asymptote from the equation Y = kinact × X/(Ki^app + X), where X represents the inhibitor concentration, Y is the observed inactivation rate for each X, and Ki^app is the apparent inhibition constant. Ki values were derived from IC50 or Ki^app using the equations Ki = Ki^app/(1 + […]) and IC50 = E0/2 + Ki^app, where Km represents the Michaelis–Menten constant, S denotes substrate concentration, and E0 indicates cathepsin concentration. The maximum inhibitor dose in the experiment was 50 μM. Measurements were conducted in multiple independent duplicates. Average values are listed.

mouse CTSK in mouse OCs = biological target: T3, mouse CTSK in mouse OCs (Mus musculus, UniProt P55097); experiment: Residual cathepsin activity in mice osteoclasts (GB123 gel); format: cell-based; conditions: 5 μM, 2 h, then GB123 2 h
T3 construct: endogenous in cells; host or cells: osteoclasts differentiated from C57BL/6 mouse bone marrow
T3 sequence (P55097 115-329): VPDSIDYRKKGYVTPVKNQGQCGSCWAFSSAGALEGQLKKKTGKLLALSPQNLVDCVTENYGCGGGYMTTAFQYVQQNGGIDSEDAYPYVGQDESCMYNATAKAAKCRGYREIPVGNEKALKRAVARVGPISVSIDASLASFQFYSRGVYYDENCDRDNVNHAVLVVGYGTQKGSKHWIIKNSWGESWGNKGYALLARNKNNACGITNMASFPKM
Protocol: (§1) Human and mouse CTSK species have a high degree of structural commonality. […] Therefore, to investigate the inhibitors’ cross-reactivity with mouse CTSK, mouse OCs were cultivated with mouse bone marrow cells stimulated with M-CSF and RANKL for 9–10 days. In addition, control cells differentiated into macrophages that highly express active cathepsins but not CTSK and were generated by treatment with M-CSF and IL-4.[49] Both intact OC and macrophage cells were incubated for 2 h with GD20, vehicle, or ODN, followed by a 2 h incubation with pan-cathepsin probe GB123. The CTSK-specific fluorescent band near 25 kDa disappeared in cells treated with GD20, whereas the other competing band remained unaltered (Figure 7a). Mice OS samples were blotted to identify the different cathepsins in the sample (Figure S9b).
(§2) Figure 7 CTSK inhibition in mice osteoclasts. (a) Activity and expression of CTSK in mouse OCs were assessed in the presence of indicated inhibitors. Intact OCs were treated for 2 h with 5 μM inhibitor in the culture medium, followed by 2 h of labeling of residual enzyme activity by GB123. Samples were analyzed by SDS-PAGE and scanned for fluorescence with a Typhoon scanner at 635/670 nm. Western blot with anti-CTSK is shown aside. […] Samples were analyzed by SDS-PAGE and scanned for fluorescence with a Typhoon scanner at 635/670 nm. […]

[2] = tested on: IL-4-induced macrophage cells; experiment: Residual cathepsin activity in IL-4-induced macrophages lacking CTSK (GB123 gel); format: cell-based, mouse; conditions: 5 μM, 2 h, then GB123
Protocol: as §1, §2

T1 sequence (P25774 115-331): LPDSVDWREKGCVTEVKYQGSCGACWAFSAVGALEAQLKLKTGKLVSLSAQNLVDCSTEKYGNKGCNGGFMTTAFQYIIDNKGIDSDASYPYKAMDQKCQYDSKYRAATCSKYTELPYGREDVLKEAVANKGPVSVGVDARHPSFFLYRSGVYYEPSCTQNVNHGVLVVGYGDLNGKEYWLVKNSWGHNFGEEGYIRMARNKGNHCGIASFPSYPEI

Compound | IC50 [1] [µM] | type of inhibition, CTSL (CTSL) | Ki (CTSL; irreversible inhibitor) [µM] | kinact (CTSL; read-out: kinact (at 50 μM), CTSL) [s⁻¹] | CTSK-specific fluorescent band near 25 kDa (mouse CTSK in mouse OCs) | inhibition of cathepsin bands in macrophages that lack CTSK [2] | Ki (CTSL; maximum inhibitor dose 50 μM) [µM]
CC(C)C[C@H](N[C@@H](c1ccc(-c2ccc(S(C)(=O)=O)cc2)cc1)C(F)(F)F)C(=O)NCC(=O)COC(=O)[C@@H]1CCCN1C(=O)[C@H](CCC(N)=O)NC(=O)OCC1c2ccccc2-c2ccccc21 [GD38] | 8.3 ± 2.3 | irreversible | > 50 | 0.0045 | – | – | –
CC(C)C[C@H](N[C@@H](c1ccc(-c2ccc(S(C)(=O)=O)cc2)cc1)C(F)(F)F)C(=O)NCC(=O)COC(=O)[C@@H]1CCCN1C(=O)[C@H](CC(C)C)NC(=O)OCC1c2ccccc2-c2ccccc21 [GD20] | 13 ± 2.8 | – | – | – | disappeared | lack of inhibition of any band | > 50

— article PMC11938014, “Development and Application of Small Molecule–Peptide Conjugates as Cathepsin K-Specific Covalent Irreversible Inhibitors in Human Osteoclast and Lung Cancer” (JACS Au, 2025)
